Measurements from patent publication US10996215B2, “Methods for determining drug efficacy for the treatment of diffuse large B-cell lymphoma, multiple myeloma, and myeloid cancers” (CELGENE CORPORATION, priority 2013, dated 2021).
Residues, ends and D or L forms follow the SMILES beside them. *: point of attachment. Cbz = O=C(OCc1ccccc1)*

Legend:
[1] = tested on: ZFP91, Aiolos; assay: Western blot of ZFP91 and Aiolos in OCI-LY10 cells; assay type: cell-based; conditions: for levels of ZFP91 and Aiolos: 6 hrs, 100 mM thalidomide, 10 mM lenalidomide, 1 mM pomalidomide, 1 μM or 10 μM Compound A, 100 nM Compound B, FIG. 17A
Description: (§1) Cells were harvested with RIPA buffer, and proteins from cell lysates were separated by 10% sodium dodecyl sulfate polyacrylamide (SDS-PAGE) gel electrophoresis (Bio-Rad), and transferred to PVDF membranes (Invitrogen). Immunoblots were probed with antibodies recognizing Aiolos (9-9-7; Celgene), CK1α(Abcam), GSPT1 (Sigma), ZFP91 (LSBio) and β-actin (Li-Cor). Signals were detected with a Li-Cor Odyssey imager.
Immunoblots were probed with antibodies recognizing Aiolos (9-9-7; Celgene), GSPT1 (Sigma), ZFP91 (LSBio) and β-actin (Li-Cor). Signals were detected with a Li-Cor Odyssey imager.
as §1, with “OCI-LY10 cells treated with DMSO or various drugs for 6 hrs. Cells” for “Cells”, “buffer” for “buffer,”, “recognizing:” for “recognizing”
OCI-LY10 cells were then treated with DMSO or various drugs for 6 hrs. […] Cells were harvested with RIPA buffer and Proteins from cell lysates were separated by 10% sodium dodecyl sulfate polyacrylamide (SDS-PAGE) gel electrophoresis (Bio-Rad), and transferred to PVDF membranes (Invitrogen). Immunoblots were probed with antibodies recognizing: Aiolos (9-9-7; Celgene), ZFP91 (LSBio), ZNF198 (LSBio) and β-actin (Li-Cor). Signals were detected with a Li-Cor™ Odyssey imager.
OCI-LY10 cells stably transduced with shCRBN 11 were induced for 48 hrs with either 0 or 10 ng/ml of doxycycline. […] Where MLN4924 treatments were present, MLN4924 was pre-incubated for 1 hr prior to drug treatment. Cells were harvested with RIPA buffer and Proteins from cell lysates were separated by 10% sodium dodecyl sulfate polyacrylamide (SDS-PAGE) gel electrophoresis (Bio-Rad), and transferred to PVDF membranes (Invitrogen). Immunoblots were probed with antibodies recognizing: CRBN-65, Aiolos (9-9-7; Celgene), Ikaros (Millipore), ZFP91 (LSBio) and β-actin (Li-Cor). Signals were detected with a Li-Cor Odyssey imager.

[2] = tested on: TMD8 (ABC) or Karpas 422 (GCB) cells; assay: competition with lenalidomide for CRBN, 3H-thymidine proliferation; assay type: cell-based; conditions: TMD8 or Karpas 422; co-treatment with 10 μM lenalidomide; competition of binding to the CRBN complex
[3] = tested on: CSNK1A1 (CK1α), Ikaros; assay: MG-132, MLN-4924 or Compound A pre-treatment, Western analysis in HNT-34 cells; assay type: cell-based; conditions: for LEN-mediated CK1α reduction after inhibitor pretreatment: FIG. 27B
[4] = tested on: Aiolos, Ikaros, ZFP91; assay: CRBN dependence of ZFP91 reduction in U266 cells, Western blot; assay type: cell-based; conditions: for compound-induced reduction of Aiolos, Ikaros, and ZFP91 after inhibitor pretreatment: 10 mM MLN4924 or MG132 for 1 hr, then compounds 6 hr; for destruction of Aiolos, Ikaros, and ZFP91 (CRBN dependent pathway): 6 hour
Procedure: U266 cells were transduced with inducible shRNA constructs targeting CRBN or targeting luciferase as control. Cells were grown in the presence or in the absence of 10 ng/ml Doxycycline, and in the presence or in the absence of 1 μM pomalidomide. Cells were harvested and were treated in cell lysis buffer to generate cell lysates. Proteins from cell lysate were separated by gel electrophoresis and transferred to nitrocellulose membranes. Immunoblots were then probed with antibodies recognizing Aiolos, CRBN, Ikaros, ZFP91, IRF4, IFIT1, IFIT3, P-STAT1, and β-actin (Li-Cor).
Cells were harvested, and lysates were run on 10% SDS-PAGE and immunoblotted with the appropriate antibodies.
MG132 activates c-Jun N-terminal kinase (JNK1), which initiates apoptosis. […] MLN4924 is a NAE1 inhibitor that blocks the activity of Cullin Ring Ligases (CRLs), such as CRL4^CRBN. […] Cells were harvested and lysates were run on 10% SDS-PAGE, transferred to nitrocellulose and immunoblotted with the corresponding antibodies.

[5] = tested on: NF-κB activation; conditions: cited from earlier work
[6] = tested on: IFN pathway; assay: effect on IFN pathway (FIG. 13); assay type: cell-based
[7] = tested on: Aiolos, Ikaros, ZFP91; assay: Western blot in myeloma, lymphoma and primary B cells; assay type: cell-based; conditions: U266, DF15, RPMI8226, OCI-LY10, WSU-DLCL2, WSU-DLCL2 Compound A resistant, primary B cells; 8 hours
Procedure: Multiple myeloma cells (U266, DF15, RPMI8226), diffuse large B cell lymphoma cells (OCI-LY10, WSU-DLCL2, WSU-DLCL2 Compound A resistant), and primary B cells were treated with DMSO, […] or […] for 8 hours. Cells were harvested and were treated in cell lysis buffer to generate cell lysates. Proteins from cell lysate were separated by gel electrophoresis (10% SDS-PAGE) and transferred to nitrocellulose membranes. Immunoblots were then probed with antibodies recognizing Aiolos, CRBN, Ikaros, ZFP91 (LSBio), IRF4, IRF7, Myc, and β-actin (Li-Cor).

O=C1CCC(N2Cc3c(OCc4ccc(CN5CCOCC5)cc4)cccc3C2=O)C(=O)N1 (stereo not shown) [Compound B, 3-[4-(4-Morpholin-4-ylmethyl-benzyloxy)-1-oxo-1,3-dihydro-isoindol-2-yl]-piperidine-2,6-dione]
levels of ZFP91 and Aiolos ([1]; OCI-LY10): reduced

Cc1ccc(NC(=O)NCc2ccc3c(c2)CN(C2CCC(=O)NC2=O)C3=O)cc1Cl (stereo not shown) [Compound C, 1-(3-chloro-4-methylphenyl)-3-((2-(2,6-dioxopiperidin-3-yl)-1-oxoisoindolin-5-yl)methyl)urea]
anti-proliferative effects on co-treatment with lenalidomide [2]: blocks anti-proliferative effects of Compound C

CC(C)C[C@@H](C=O)NC(=O)[C@H](CC(C)C)NC(=O)[C@H](CC(C)C)NC(=O)OCc1ccccc1 [MG132] (Cbz-Leu-Leu-Leu-aldehyde)
CSNK1A1 protein levels in the presence of lenalidomide ([3]; 3 μM or 10 μM MG-132 pre-treatment 30 min): stabilized | LEN-mediated CK1α reduction after inhibitor pretreatment [3]: abrogated | compound-induced reduction of Aiolos, Ikaros, and ZFP91 after inhibitor pretreatment [4]: blocked | IC50 [5]: 3000 nM

NS(=O)(=O)OC[C@@H]1C[C@@H](n2ccc3c(N[C@H]4CCc5ccccc54)ncnc32)C[C@@H]1O [MLN4924]
LEN-mediated CK1α reduction after inhibitor pretreatment [3]: abrogated | compound-induced reduction of Aiolos, Ikaros, and ZFP91 after inhibitor pretreatment [4]: blocked | level of both Aiolos and ZFP91 in drug-treated cells after MLN-4924 pre-treatment ([1]; OCI-LY10, 10 μM MLN-4924 1 hour prior to drug, FIG. 17C): restored | Aiolos and ZFP91 degradation in response to Compound A ([1]; OCI-LY10, 10 μM MLN-4924 pretreatment 1 hour, FIG. 14B): blocked | level of both Aiolos and ZFP91 in drug-treated cells after MLN-4924 pre-treatment ([1]; OCI-LY10 shCRBN 11, lenalidomide or Compound A 6 hours, MLN4924 1 hr pre-incubation, FIG. 17D): restored

Nc1cccc2c1C(=O)N(C1CCC(=O)NC1=O)C2=O (stereo not shown) [pomalidomide]
IFIT1, IFIT3, DDX58, XAF1, IFIH1, and OAS3 protein expression ([6]; FIG. 13A): upregulates | DDX58, IFI27, IFIT1, IFIT3, DDX58, and XAF1 gene expression ([6]; FIG. 13B): upregulates | ISG15 and OAS3 gene expression ([6]; FIG. 13C): upregulates | IRF changes ([6]; FIG. 13E): induces | IFIT1 and IFIT3 protein expression ([6]; FIG. 13F): upregulates | IKKE protein level ([6]; FIG. 13F): reduces | TBK1 phosphorylation (TBK1-PO4) ([6]; FIG. 13F): upregulates | levels of STAT or phosphorylated STAT ([6]; FIG. 13G): induces changes | levels of Aiolos, Ikaros, and ZFP91 [7]: reduced | pomalidomide induced reductions of Aiolos, Ikaros, and ZFP91 when CRBN knocked down by shRNA ([4]; 1 μM pomalidomide, 10 ng/ml Doxycycline): blocked | destruction of Aiolos, Ikaros, and ZFP91 (CRBN dependent pathway) [4]: induced | levels of ZFP91 and Aiolos ([1]; OCI-LY10): reduced

O=C1CCC(N2C(=O)c3ccccc3C2=O)C(=O)N1 (stereo not shown) [thalidomide]
destruction of Aiolos, Ikaros, and ZFP91 (CRBN dependent pathway) [4]: induced | levels of ZFP91 and Aiolos ([1]; OCI-LY10): reduced
